Entries after “also recorded” stand apart in the source; their conditions may differ.
Tests used:
rat hippocampal neurons [1] = experiment: RNA-seq of Aβ42-challenged neurons with dovitinib co-treatment; format: cell-based
Protocol: Basal expression levels were measured in vehicle-treated cells. DEGs identified in Aβ42 condition are compared against their expression values in neurons co-treated with dovinitib. Individual datapoints show fold-changes over baseline (log2-transformed) of n=2 biological replicates. Aβ42 and dovitinib were applied for 24 hours before RNA collection. […] FGF, fibroblast growth factor.
Prior to RNA collection, neuronal cultures were washed with ice-cold HBSS (Thermo Fischer) and lysed with TRIzol reagent (#15596026, Thermo Fisher) by scrapping. The reaction was allowed to proceed on ice for 5 minutes, at which point samples were centrifuged at 12,000 g and 4° C. and supernatants transferred to new tubes before a 1:1 (v/v) dilution with molecular biology-grade 100% ethanol (Millipore Sigma). The RNA extraction protocol was continued using the Direct-zol RNA MicroPrep kit (Zymo Research), in accordance to manufacturer's instructions, and included an on-column DNA digestion step with DNase I. RNA was eluted in 30 μl of water. RNA-seq library preparation and sequencing reactions were conducted at GENEWIZ, Inc. (South Plainfield, NJ, USA). RNA sequencing libraries were prepared using the NEBNext Ultra RNA Library Prep Kit for Illumina following manufacturer's instructions (NEB). Briefly, mRNAs were first enriched with oligo(dT) beads. […] The sequencing libraries were validated on an Agilent TapeStation (Agilent Technologies) and quantified using a Qubit 2.0 Fluorometer (Life Technologies) as well as quantitative PCR (KAPA Biosystems). […] RNA-seq sequencing data were processed and analyzed within the Galaxy web platform, using the public server at usegalaxy.org. First, library adapters and low-quality reads were removed using Trimmomatic (version 0.38) with the following settings: initial ILLUMINACLIP step to cut adapters and other Illumina-specific sequences from the reads, seedMismatches=2, palindromeClipThreshold=30, simpleClipThreshold=10, minAdapterLength=8, keepBothReads=True, AVGQUAL >20, SLIDINGWINDOW: windowSize=4 and requiredQuality=20, and MINLEN=50. […]

[2] = Schafer et al., 2016; cited from earlier work
neurons = conditions: Rodriguez et al., 2021; cited from earlier work
[3] = test system: CREB3L2-ATF4 heterodimers; experiment: Proximity ligation assay (PLA) of axonal CREB3L2-ATF4 heterodimers; format: cell-based, rat; conditions: emetine 100 nM to axons, last 60 minutes of 12-hour Aβ42 protocol
Protocol: Hippocampi were dissected from embryonic day (E) 16-18 rat embryos obtained from pregnant Sprague-Dawley dams (Envigo). All animal procedures were approved by the Institutional Animal Care and Use Committee at Columbia University. Cell dissociation was performed using TripLE Express. Neurons (50,000-60,000 per microfluidic chamber) were plated on 0.1 mg ml^-1 poly-D-lysine (Millipore Sigma) and 2 μg ml^-1 laminin (Bio-Techne) coated substrates and grown in Neurobasal supplemented with 10% fetal bovine serum, 2 mM L-glutamine, 1 mM sodium pyruvate, and antibiotics (50 U ml^-1 penicillin-streptomycin). Tripartite microfluidic chambers were produced with Dow Corning Sylgard 184 Silicone Encapsulant Clear Kit (10:1 mix ratio; Ellsworth Adhesives) cured at […] for at least 4 hours following published protocols (Park et al. 2006; Desai et al. 2009). Chamber design incorporated two sets of 200-μm-long microgroove barriers to exclude crossing of cell bodies and dendrites (Taylor et al. 2005; […] et al. 2009). After 24 hours, medium was changed to Neurobasal containing 1×B27 and 2 mM L-glutamine. Subsequent medium changes (half volumes) were performed at DIV4 and thereafter every 3-5 days. To prevent glial cell proliferation, medium changes included 5-flurodeoxyuridine and uridine (final concentration […]; Millipore Sigma) after DIV4. […]

[4] = target: T1, GFP-tagged H. sapiens CREB3L2, full-length form (UniProt Q70SY1)
T1 sequence: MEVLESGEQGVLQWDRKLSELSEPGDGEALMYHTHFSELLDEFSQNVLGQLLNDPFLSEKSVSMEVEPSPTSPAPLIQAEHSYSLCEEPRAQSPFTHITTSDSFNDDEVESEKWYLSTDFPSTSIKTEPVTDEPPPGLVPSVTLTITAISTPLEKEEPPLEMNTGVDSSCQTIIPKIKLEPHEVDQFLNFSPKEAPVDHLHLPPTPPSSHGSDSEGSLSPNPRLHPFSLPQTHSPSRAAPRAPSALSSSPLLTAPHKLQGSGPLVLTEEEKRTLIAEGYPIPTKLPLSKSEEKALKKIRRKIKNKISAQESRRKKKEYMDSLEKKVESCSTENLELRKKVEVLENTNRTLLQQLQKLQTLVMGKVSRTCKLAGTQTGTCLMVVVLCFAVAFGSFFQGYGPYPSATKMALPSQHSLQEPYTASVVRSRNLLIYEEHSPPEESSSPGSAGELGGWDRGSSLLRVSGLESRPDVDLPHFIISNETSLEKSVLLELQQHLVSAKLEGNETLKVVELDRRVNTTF

[5] = target: GFP-tagged CREB3L2-S1P- (full-length form with mutated S1P site) (UniProt Q70SY1)
rat hippocampal neurons [6] = experiment: Neuronal viability (RealTime-Glo MT) after 48-hour Aβ42 stimulation; format: cell-based; conditions: lentiviral delivery at DIV1; Aβ42 750 nM 48 hours; relative to wild-type neurons; Aβ42/vehicle ratios
Protocol: Plots show individual measurements and mean±SEM of n=3 biological replicates. For each background, data are presented as Aβ42/vehicle ratios. ATF4 aZIP: *P-value=0.0167; CREB3L2 aZIP: *P-value=0.0137; unpaired t-tests.
Specific aZIPs sequences were synthesized by Genewiz. CREB3L2 aZIP: 5′-[…]-3′. (SEQ ID NO: 68) ATF4 aZIP: 5′-[…]-3′. […] Lentiviral particles were delivered at DIV1, 24 hours post-dissection. Neuronal cultures were allowed to mature until DIV15 and treated with Aβ42 at 750 nM for 48 hours. Cell viability was assayed using RealTime-Glo MT Cell Viability Assay (Promega) following manufacturer's guidelines; reaction was allowed to proceed for 1 hour before taking luminescence readings (SpectraMax iD5, Molecular Devices). Also see FIGS. 34A-34D.

**Q.** Which results are given for `CN1CCN(c2ccc3nc(-c4c(N)c5c(F)cccc5[nH]c4=O)[nH]c3c2)CC1` [dovitinib]?
**A.** number of genes surpassing 0.25 differences in head-to-head comparisons (rat hippocampal neurons [1]; 24-hour Aβ42 + dovitinib vs Aβ42): 30; number of Aβ42 DEGs (of 203) showing corrective shifts 0.10 with dovitinib co-treatment (rat hippocampal neurons [1]; 24-hour Aβ42 + dovitinib, log fold-change, n=2): 131; Vgf log fold-change [Aβ42+dovitinib] (rat hippocampal neurons [1]; 24 hours, Aβ42 alone log fold-change 0.57, over vehicle baseline): 0.07; crossing of the blood-brain barrier [2]: can cross; toxicity to neurons (neurons): non-toxic

**Q.** With `CC[C@H]1CN2CCc3cc(OC)c(OC)cc3[C@@H]2C[C@@H]1C[C@H]1NCCc2cc(OC)c(OC)cc21` [emetine] as the molecule, how does the “Aβ42-induced upregulation of axonal CREB3L2-ATF4 heterodimers (PLA)” value [3] read?
**A.** completely prevented; also recorded: limited their association in axons to control levels

**Q.** For site 1 protease (S1P), which “CREB3L2 proteolytic cleavage (western blot, coexpression in HEK293)” value (from here on “CREB3L2 proteolytic cleavage”) [4] is on record?
**A.** Coexpression of S2P, but not S1P, together with full-length GFP-CREB3L2 in HEK293 cells is sufficient to promote the activation of CREB3L2

**Q.** With site 2 protease (S2P) as the molecule, how does the “CREB3L2 proteolytic cleavage” value [5] read?
**A.** Preventing S1P processing by eliminating its cleavage site does not impede S2P-mediated processing

**Q.** What about the “CREB3L2 proteolytic cleavage” value [4] of the same molecule?
**A.** Coexpression of S2P, but not S1P, together with full-length GFP-CREB3L2 in HEK293 cells is sufficient to promote the activation of CREB3L2

B1: CREB3L2 aZIP: dominant-negative acidic-ZIP peptide targeting CREB3L2, encoded by nucleotide SEQ ID NO: 68, delivered by lentivirus (protein)
peptide: MDYKDDDDKHMASMTGGQQMGRDPDLEQRAEELARENEELEKEAEELEQELAELRKKVEVLENTNRTLLQQLQKLQTLVMGKVSRTCKLAGTQTGTCLMVVVL
**Q.** With B1 as the molecule, how does the “cell viability in neurons exposed to Aβ42” value (rat hippocampal neurons [6]) read?
**A.** significantly improved

B2: ATF4 aZIP: dominant-negative acidic-ZIP peptide targeting ATF4, encoded by nucleotide SEQ ID NO: 69, delivered by lentivirus (protein)
peptide: MDYKDDDDKHMASMTGGQQMGRDPDLEQRAEELARENEELEKEAEELEQELAELTGECKELEKKNEALKEKADSLAKEIQYLKDLIEEVRKARGKKRVP
**Q.** For B2, which “cell viability in neurons exposed to Aβ42” value (rat hippocampal neurons [6]) is on record?
**A.** significantly improved

From patent publication US20250027085A1, “COMPOSITIONS AND METHODS FOR TREATING ALZHEIMER'S DISEASE UTILIZING A TRANSCRIPTIONAL MASTER REGULATOR OF THE RETROMER COMPLEX” (THE TRUSTEES OF COLUMBIA UNIVERSITY IN THE CITY OF NEW YORK, priority 2022, published 2025)
